Data reported in patent US20110152094A1, “Herbicidal compositions comprising flufenacet” (Bayer CropScience AG, priority 2009, published 2011).

Legend:
Type in all cases: in vivo
[1] = system: MATCH sensitive (Matricaria chamomilla); test: Greenhouse trial, PE application on resistant biotypes (test method 8); conditions: sensitive biotype, g of AS/ha: (A) 90, (B) 1200, (A)+(B) 90 + 1200, (C) 10
Protocol: (§1) In the standard design of the test, seeds of various broad-leaved weed and weed grass biotypes (origins) were sown in a 8-13 cm diameter pot filled with natural soil of a standard field soil (loamy silt; non-sterile) and covered with a covering soil layer of about 1 cm. The pots were then cultivated in a greenhouse (12-16 h of light, temperature day 20-22° C., night 15-18° C.) until the time of application. The pots were treated on a laboratory track sprayer with spray liquors comprising the compositions according to the invention, mixtures of the prior art or components used individually. Application of the active compounds or active compound combinations formulated as WG, WP, EC or otherwise was carried out at the appropriate growth stages of the plants. The application rate for the spray application was 100-600 l of water/ha. After the treatment, the plants were returned to the greenhouses.
(§2) About 3 weeks after the application, the soil action or/and foliar action was assessed visually according to a scale of 0-100% in comparison to an untreated comparative group: 0%=no noticeable effect compared to the untreated comparative group; 100%=full effect compared to the untreated comparative group.
(§3) (notes: the term “seeds” also includes vegetative propagation forms such as, for example, rhizome pieces; abbreviations used: h light=hours of illumination, g of AS/ha=gram of active substance per hectare, l/ha=liter per hectare, S=sensitive, R=resistant) • 1. Pre-emergence action against weeds: seeds of various broad-leaved weed and weed grass biotypes (origins) were sown in a 8-13 cm diameter pot filled with natural soil of a standard field soil (loamy silt; non-sterile) and covered with a covering soil layer of about 1 cm. The pots were then cultivated in a greenhouse (12-16 h of light, temperature day 20-22° C., night 15-18° C.) until the time of application. The pots were treated at the BBCH stage 00-10 of the seeds/plants on a laboratory track sprayer with spray liquors comprising the compositions according to the invention, mixtures or components used individually, as WG, WP, EC or other formulations. The application rate for the spray application was 100-600 l of water/ha. After the treatment, the plants were returned to the greenhouses and, when required, treated with fertilizer and watered. • 2. Post-emergence action against weeds: seeds of various broad-leaved weed and weed grass biotypes (origins) were sown in a 8-13 cm diameter pot filled with natural soil of a standard field soil (loamy silt; non-sterile) and covered with a covering soil layer of about 1 cm. The pots were then cultivated in a greenhouse (12-16 h of light, temperature day 20-22° C., night 15-18° C.) until the time of application. The pots were treated at various BBCH stages between 11-25 of the seeds/plants, i.e. generally between two to three weeks after the start of the cultivation, on a laboratory track sprayer with spray liquors comprising the compositions according to the invention, mixtures or components used individually, as WG, WP, EC or other formulations. The application rate for the spray application was 100-600 l of water/ha. After the treatment, the plants were returned to the greenhouses and, when required, treated with fertilizer and watered. • 3. Selective pre-emergence action: seeds of various crop species (origins) were sown in a 8-13 cm diameter pot filled with natural soil of a standard field soil (loamy silt; non-sterile) and covered with a covering soil layer of about 1 cm. The pots were then cultivated in a greenhouse (12-16 h of light, temperature day 20-22° C., night 15-18° C.) until the time of application. The pots were treated at the BBCH stage 00-10 of the seeds/plants on a laboratory track sprayer with spray liquors comprising the compositions according to the invention, mixtures or components used individually, as WG, WP, EC or other formulations. The application rate for the spray application was 100-600 l of water/ha. […]

[2] = system: STEME = Stellaria media; test: Greenhouse trial, post-emergence (PO) action against weeds (test method 2); conditions: PO application; g of AS/ha: (A) 120, (B) 1200, (A)+(B) 120 + 1200; about 3 weeks after application
Protocol: as §1, §2, §3

[3] = system: LOLPE = Lolium perenne; test: as above; conditions: PO application; g of AS/ha: (A) 120, (B) 1200, (A)+(B) 120 + 1200; about 3 weeks after application
Protocol: as §1, §2, §3

[4] = system: VIOAR = Viola arvensis; test: as above; conditions: PO application; g of AS/ha: (A) 120, (B) 1200, (A)+(B) 120 + 1200; about 3 weeks after application
Protocol: as §1, §2, §3

[5] = system: MATCH = Matricaria chamomilla; test: Greenhouse trial, pre-emergence (PE) action against weeds (test method 1); conditions: PE application; g of AS/ha: (A) 90, (B) 1200, (A)+(B) 90 + 1200
Protocol: as §1, §2
(§4) (notes: the term “seeds” also includes vegetative propagation forms such as, for example, rhizome pieces; abbreviations used: h light=hours of illumination, g of AS/ha=gram of active substance per hectare, l/ha=liter per hectare, S=sensitive, R=resistant) • 1. Pre-emergence action against weeds: seeds of various broad-leaved weed and weed grass biotypes (origins) were sown in a 8-13 cm diameter pot filled with natural soil of a standard field soil (loamy silt; non-sterile) and covered with a covering soil layer of about 1 cm. The pots were then cultivated in a greenhouse (12-16 h of light, temperature day 20-22° C., night 15-18° C.) until the time of application. The pots were treated at the BBCH stage 00-10 of the seeds/plants on a laboratory track sprayer with spray liquors comprising the compositions according to the invention, mixtures or components used individually, as WG, WP, EC or other formulations. The application rate for the spray application was 100-600 l of water/ha. After the treatment, the plants were returned to the greenhouses and, when required, treated with fertilizer and watered. • 2. Post-emergence action against weeds: seeds of various broad-leaved weed and weed grass biotypes (origins) were sown in a 8-13 cm diameter pot filled with natural soil of a standard field soil (loamy silt; non-sterile) and covered with a covering soil layer of about 1 cm. The pots were then cultivated in a greenhouse (12-16 h of light, temperature day 20-22° C., night 15-18° C.) until the time of application. […]

[6] = system: AVEFA = Avena fatua; test: as above; conditions: PE application; g of AS/ha: (A) 90, (B) 1200, (A)+(B) 90 + 1200
Protocol: as §1, §2, §4

[7] = system: HORVW = Hordeum vulgare, winter barley; test: Greenhouse trial, selective pre-emergence (PE) action on crop plant (test method 3); conditions: PE application, g of AS/ha: (A) 90, (B) 1200, (A)+(B) 90 + 1200
Protocol: as §1
as §2, with “group. […]” for “group.”

[8] = system: HORVS = Hordeum vulgare, summer barley; test: Greenhouse trial, selective post-emergence (PO) action on crop plant (test method 4); conditions: PO application, g of AS/ha: (A) 120, (B) 1200, (A)+(B) 120 + 1200, about 3 weeks after application
Protocol: as §1
as §2, with “group. […]” for “group.”

[9] = system: STEME = Stellaria media; test: Greenhouse trial, activity with different soil types (test method 7); conditions: g of AS/ha: (A) 120, (B) 1200, (A)+(B) 120 + 1200
Protocol: as §1, §2, §3

[10] = system: TRZAS = Triticum aestivum, summer wheat; test: as above; conditions: g of AS/ha: (A) 120, (B) 1200, (A)+(B) 120 + 1200
Protocol: as §1, §2, §3

[11] = system: MATCH = Matricaria chamomilla; test: Greenhouse trial, pre-sowing application 7 days prior to sowing (test method 5); conditions: g of AS/ha: (A) 90, (B) 1200, (A)+(B) 90 + 1200
Protocol: as §1, §2
(§5) (notes: the term “seeds” also includes vegetative propagation forms such as, for example, rhizome pieces; abbreviations used: h light=hours of illumination, g of AS/ha=gram of active substance per hectare, l/ha=liter per hectare, S=sensitive, R=resistant) • 1. Pre-emergence action against weeds: seeds of various broad-leaved weed and weed grass biotypes (origins) were sown in a 8-13 cm diameter pot filled with natural soil of a standard field soil (loamy silt; non-sterile) and covered with a covering soil layer of about 1 cm. The pots were then cultivated in a greenhouse (12-16 h of light, temperature day 20-22° C., night 15-18° C.) until the time of application. The pots were treated at the BBCH stage 00-10 of the seeds/plants on a laboratory track sprayer with spray liquors comprising the compositions according to the invention, mixtures or components used individually, as WG, WP, EC or other formulations. The application rate for the spray application was 100-600 l of water/ha. After the treatment, the plants were returned to the greenhouses and, when required, treated with fertilizer and watered. • 2. Post-emergence action against weeds: seeds of various broad-leaved weed and weed grass biotypes (origins) were sown in a 8-13 cm diameter pot filled with natural soil of a standard field soil (loamy silt; non-sterile) and covered with a covering soil layer of about 1 cm. The pots were then cultivated in a greenhouse (12-16 h of light, temperature day 20-22° C., night 15-18° C.) until the time of application. The pots were treated at various BBCH stages between 11-25 of the seeds/plants, i.e. generally between two to three weeks after the start of the cultivation, on a laboratory track sprayer with spray liquors comprising the compositions according to the invention, mixtures or components used individually, as WG, WP, EC or other formulations. The application rate for the spray application was 100-600 l of water/ha. After the treatment, the plants were returned to the greenhouses and, when required, treated with fertilizer and watered. • 3. […]

[12] = system: HORVW = Hordeum vulgare, winter barley; test: as above; conditions: g of AS/ha: (A) 90, (B) 1200, (A)+(B) 90 + 1200
Protocol: as §1, §2, §5

[13] = system: AVEFA = Avena fatua; test: as above; conditions: g of AS/ha: (A) 90, (B) 1200, (A)+(B) 90 + 1200
Protocol: as §1, §2, §5

Structure (SMILES): CCC(CC)Nc1c([N+](=O)[O-])cc(C)c(C)c1[N+](=O)[O-] [(B) pendimethalin, N-(1-ethylpropyl)-3,4-dimethyl-2,6-dinitrobenzenamine]
- activity MATCH sensitive (visual assessment, scale 0-100% vs untreated) [1]: 10%
- activity STEME (visual assessment, scale 0-100% vs untreated) [2]: 30%
- activity LOLPE (visual assessment, scale 0-100% vs untreated) [3]: 0%
- activity VIOAR (visual assessment, scale 0-100% vs untreated) [4]: 30%
- activity MATCH (visual assessment, scale 0-100% vs untreated) [5]: 18%
- activity AVEFA (visual assessment, scale 0-100% vs untreated) [6]: 88%
- activity on crop plant HORVW (visual assessment, scale 0-100% vs untreated) [7]: 50%
- activity on crop plant HORVS (visual assessment, scale 0-100% vs untreated) [8]: 10%
- activity STEME IU soil (visual assessment, scale 0-100% vs untreated) ([9]; IU soil (loamy silt, standard field soil)): 85%
- activity STEME IU/EC73 soil (visual assessment, scale 0-100% vs untreated) ([9]; IU/EC73 soil (heavier soil, higher organic substance)): 55%
- Difference of the soil types Δ^D, STEME ([9]; IU/EC73 soil versus IU soil): Δ^D −30%
- activity on crop plant TRZAS IU soil (visual assessment, scale 0-100% vs untreated) ([10]; IU soil): 5%
- Difference of the soil types Δ^D, TRZAS ([10]; IU/EC73 soil versus IU soil, crop plant): Δ^D −5%
- activity on crop plant TRZAS IU/EC73 soil (visual assessment, scale 0-100% vs untreated) ([10]; IU/EC73 soil): 0%
- activity MATCH (visual assessment, scale 0-100% vs untreated) [11]: 0%
- activity on crop plant HORVW (visual assessment, scale 0-100% vs untreated) [12]: 40%
- activity AVEFA (visual assessment, scale 0-100% vs untreated) [13]: 70%
